Laboratory results: PubChem BioAssay (NCI)
Several values for one entry are separate records, joined by “and”; a condition that tells them apart may be missing. Identical values can stand only once.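 Cultured in 96-well plates, cells were exposed to test compound for 48 hours across five concentrations. GI50 marks 50% less growth. TGI marks complete inhibition of growth.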

How the values were obtained:
Test in all cases: growth of human tumour cells (NCI), 48 h
[1] = system: M14 melanoma
[2] = system: HOP-62 NSCLC
[3] = system: RXF 393 renal
[4] = system: NCI-H522 lung
[5] = system: IGROV1 ovarian
[6] = system: HT29 colon
[7] = system: COLO 205 colon
[8] = system: RPMI-8226 leukemia
[9] = system: TK-10 renal
[10] = system: T-47D breast

| Compound | TGI [1] | TGI [2] [µM] | TGI [3] | TGI [4] | TGI [5] | TGI [6] | TGI [7] [µM] | TGI [8] | TGI [9] | GI50 [1] [µM] | GI50 [2] [µM] | GI50 [3] [µM] | GI50 [4] [µM] | GI50 [5] [µM] | GI50 [6] [µM] | GI50 [7] [µM] | GI50 [10] [µM] | TGI [10] [µM] | GI50 [9] [µM] | GI50 [8] [µM] |
| --- | --- | --- | --- | --- | --- | --- | --- | --- | --- | --- | --- | --- | --- | --- | --- | --- | --- | --- | --- | --- |
| CCOC(=O)C(CCC(N)=O)(CCC(=O)OC)C(=O)OCC | > 100 µM | > 100 | > 100 µM | > 100 µM | > 100 µM | > 100 µM | > 100 | > 100 µM | > 100 µM |  |  |  |  |  |  |  |  |  |  |  |
| OCC[N+]12CCCN1CCC2 | > 100 µM | > 100 | > 100 µM | > 100 µM | > 100 µM | > 100 µM | > 100 |  | > 100 µM |  |  |  |  |  |  |  |  |  |  |  |
| Cc1ccc(/C=C(\NC(=O)c2ccccc2)c2nc3ccccc3[nH]2)cc1 | > 100 µM | > 100 | > 100 µM | > 100 µM | > 100 µM | > 100 µM | > 100 |  | > 100 µM |  |  |  |  |  |  |  |  |  |  |  |
| O=C(COc1cccc(/C=C2\CSc3ccc(Cl)cc3C2=O)c1)c1ccc(Cl)cc1 | 28.2 µM | 72.7 | 34.3 µM | 4.19 µM | 20.2 µM | 4.18 µM | 20.2 |  | 79.9 µM | 12.4 | 22.1 | 14.1 | 1.74 | 3.29 | 2.08 | 5.32 | 0.993 | 18.4 | 29 |  |
| CSc1nc2nn(Cc3ccccc3)cc2c(=O)[nH]1 | > 100 µM | > 100 | > 100 µM | > 100 µM | > 100 µM | > 100 µM | > 100 | > 100 µM | > 100 µM |  |  |  |  |  |  |  |  |  |  |  |
| O=C1CC(c2ccccc2)Cc2nc3ccc(Br)cc3cc21 (stereo not given) | 12.4 µM | > 100 |  | 20.3 µM | > 100 µM | > 100 µM | 1.8 | > 100 µM | > 100 µM | 0.0486 | 0.526 |  | 0.204 | 0.428 | 0.244 | 0.281 | 5.68 | > 100 | 24.2 | 2.92 |
| CCC1C(C(=O)Nc2ccccc2C)=C(C)NC(C)=C1c1ccccc1C (stereo not given) | > 100 µM | > 100 | > 100 µM | > 100 µM | > 100 µM | > 100 µM | > 100 | 61.5 µM | > 100 µM |  |  |  |  |  |  |  |  |  |  |  |
| CCn1c2ccccc2c(=O)c2c(OC)ccc(OC)c21 | > 100 µM | > 100 | 80.1 µM | > 93.8 µM | > 100 µM | > 100 µM | > 100 | > 100 µM |  |  |  |  |  |  |  |  |  |  |  |  |
| O=C(N/C(=C\c1cccc([N+](=O)[O-])c1)c1nc2ccccc2[nH]1)c1ccccc1 | > 100 µM | > 100 |  | > 100 µM | > 100 µM | > 100 µM | > 100 | > 100 µM |  |  |  |  |  |  |  |  |  |  |  |  |
| C=CC(=O)NC(N)=NC#N | 292 µM | 423 | 98.1 µM and 286 µM | 36.9 µM and 4.09 µM | 330 µM | 372 µM | 280 | > 67.3 µM and 446 µM | 272 µM |  |  | 149 | 1.95 |  |  |  |  |  |  | 91.6 |
| CCN(CC)CC(C)C(=O)/C=C/c1ccc(C)cc1 (stereo not given) | 4.85 µM | 33.5 | 4.31 µM |  | 4.86 µM | 3.31 µM | 3.02 | > 100 µM | 3.69 µM |  |  |  |  |  |  |  |  |  |  |  |
| O=C(CCc1ccccc1)NS(=O)(=O)c1ccccc1 | > 100 µM | > 100 | > 100 µM | > 100 µM | > 100 µM | > 100 µM | > 100 | > 100 µM | > 100 µM |  |  |  |  |  |  |  |  |  |  |  |
| Oc1ccc2ccccc2c1N=Nc1cc(Cl)ccc1Cl | > 50 µM | 20.8 | > 50 µM | > 50 µM | 18.1 µM | > 50 µM | > 50 | > 50 µM | 35.9 µM |  |  |  |  |  |  |  |  |  |  |  |
| c1ccncc1 | > 100 µM | > 100 | > 100 µM | > 100 µM | > 100 µM | > 100 µM | > 100 | > 100 µM | > 100 µM |  |  |  |  |  |  |  |  |  |  |  |
| COc1ccc(C2CC(c3ccc(Nc4ccnc5cc(Cl)ccc45)cc3)=NN2C=O)cc1 (stereo not given) | > 100 µM | > 100 | > 100 µM |  | > 100 µM | > 100 µM | > 100 | 48.6 µM | 48.2 µM | 7.67 | 43.7 | 11.6 |  | 43.1 | 3.81 | 3.56 | 1.38 | 15 | 20.9 | 2.71 |
| O=[N+]([O-])c1ccc(C(Cl)C(Cl)c2ccc(C(Cl)C(Cl)c3ccc([N+](=O)[O-])cc3[N+](=O)[O-])cc2)c([N+](=O)[O-])c1 (stereo not given) | 1.77 µM and 0.681 µM | 6.2 | 2.33 µM and 1.34 µM | 2.36 µM and 0.447 µM | 11.4 µM and 8.68 µM | 4.57 µM and 1.08 µM | 1.99 | 0.509 µM | 14.5 µM and 2.5 µM | 0.243 |  | 0.31 | 0.183 | 0.571 | 0.313 |  |  |  | 0.536 |  |
| N#CCC(=O)N/N=C1/C(=O)N(c2cc(Cl)ccc2Cl)C(=O)C(=O)C1c1nc2ccccc2s1 (stereo not given) | > 100 µM | > 100 | 28.5 µM | > 100 µM | > 100 µM | > 100 µM | > 100 | > 100 µM | > 100 µM |  |  |  |  |  |  |  |  |  |  |  |
| NC1CCCCC1N.O=C1C=C/C(=C(/c2ccc(O)c(Br)c2)c2ccccc2S(=O)(=O)[O-])C=C1Br.O=C1C=C/C(=C(/c2ccc(O)c(Br)c2)c2ccccc2S(=O)(=O)[O-])C=C1Br.[Pt+4] | > 100 µM | 9.95 | 89.7 µM | 22.6 µM | > 100 µM | > 100 µM | 40.6 | > 100 µM | > 100 µM | 7.77 | 7.88 | 19.8 | 1.9 | 4.17 | 1.67 | 1.64 |  |  | 57.2 | 6.29 |
| O=C1C=CC(=C(c2ccccc2)c2ccc(O)cc2)C=C1 | 91.6 µM | > 100 | 30.5 µM | 28.2 µM | 22.5 µM | 43.4 µM | 49.7 | > 100 µM | 37.4 µM |  |  |  |  |  |  |  |  |  |  |  |
